Measured values: patent publication US20210213001A1, “METHOD OF TREATING A SLEEP BREATHING DISORDER” (Monash University, priority 2018, published 2021)

Assays:
[1] = test system: anaesthetised, hyperventilated Domperidone-treated lamb; assay: Periodic breathing induced by transient hyperventilation in the anaesthetised Domperidone-treated lamb (model of elevated loop gain); assay type: in vivo; conditions: for effect on average value of loop gain across the epoch / effect on epoch duration / effect on number of cycles in epochs of periodic breathing following hyperventilation / number of cycles of ventilation and apnea in the epoch of periodic breathing / duration of the epoch of periodic breathing / average value of loop gain across the epoch of periodic breathing: 5 mg/kg i.v.; for effect on average value of loop gain across the epoch / effect on epoch duration / effect on number of cycles in epochs of periodic breathing following hyperventilation: before vs after drug, Retigabine lambs 1-3, Flupirtine lamb 4; for number of cycles of ventilation and apnea in the epoch of periodic breathing / duration of the epoch of periodic breathing / average value of loop gain across the epoch of periodic breathing: single lamb; for number of cycles of ventilation and apnea in the epoch of periodic breathing / duration of the epoch of periodic breathing: about 1 hour after drug; for number of cycles of ventilation and apnea in the epoch of periodic breathing: same lamb before drug: 30 (Retigabine lamb), 24 (Flupirtine lamb); for duration of the epoch of periodic breathing: same lamb before drug: 6 minutes (Retigabine lamb), 320 seconds (Flupirtine lamb); for average value of loop gain across the epoch of periodic breathing: duty ratio method, same lamb before drug: 1.71 (Retigabine lamb), 1.51 (Flupirtine lamb)
From the text: To determine the effects of the KCNQ channel openers Retigabine and Flupirtine on loop gain and periodic breathing in the anaesthetised, hyperventilated Domperidone-treated lamb.
This animal model provides a robust preparation to test the effects of candidate drugs for the treatment of disordered breathing associated with increased peripheral chemosensitivity and elevated loop gain.
Young lambs (Merino/Border-Leicester cross, 14-18 kg) were instrumented surgically and maintained through the experimental protocol according to the method described by Edwards et al. (2008). Briefly, a non-occlusive catheter was placed in the left jugular vein for the induction of anaesthesia using a loading dose of ketamine hydrochloride (5 mg/kg) followed by alpha-chloralose (80 mg/kg as a starting bolus, then as a continuous infusion at 20 mg/kg/hr. Supplemental doses of alpha-chloralose were administered as needed to maintain adequate anaesthesia. A glucose-saline solution was infused through the same catheter to maintain fluid levels (5% glucose in 0.9% saline at 4 ml/kg/hr). A tracheal tube was inserted and connected to a dual intermittent mechanical ventilator (IMV)/high frequency oscillatory ventilator (Humming2; BMO-20H) used in the IMV mode. Use of a 4-way Hans Rudolf valve enabled the lamb to be ventilated artificially or to breathe spontaneously from a circuit through which a flow of gas was maintained at 45 L/min, or from the room air. Measurements of respiratory flow, tidal volume and end-expired gases were made on the tracheal line. Respiratory flow was measured using a Hans Rudolph (3500A) pneumotachograph that was linear up to 35 l/min, in conjunction with a Gaeltec 8T-2 differential pressure transducer connected to a carrier amplifier (Hewlett Packard 8805B) and thence to an HP-8815A electronic integrator to determine tidal volume. Non-occlusive catheters were placed in the right jugular vein and a carotid artery for the intravenous administration of drugs, the sampling of venous and arterial blood gases and the monitoring of blood pressure. Arterial blood pressure was measured using a Micron MP-15 blood pressure transducer connected to a Hewlett-Packard 8805B carrier amplifier. A rectal probe was used to monitor body temperature, which was maintained within the range of 40.0±1.0° C. using an overhead radiant heater. Arterial oxygen saturation was measured continuously using a Nellcor pulse oximeter (Model N-200E) with the probe placed in the trans-mandibular position in such a way that the optical path included the soft tissues of the jaw but excluded the tongue.
Domperidone (0.5 mg/kg in 30 ml 0.1% lactic acid), Flupirtine (as Flupirtine maleate, 5 mg/kg in 30 ml distilled water) and Retigabine (5 mg/kg in 30 ml distilled water) were each administered over a period of 5 minutes via the jugular vein catheter.
Lambs breathed room air (atmospheric) throughout the experimental protocol. Domperidone was administered at the commencement of the experimental protocol. […] Epochs of periodic breathing were induced by switching the tracheal tube to the ventilator circuit and hyperventilating the lamb with air for at least 5 minutes to reduce end tidal CO2 to a level that produced apnea when the ventilator was switched off. […] Typically, an extended epoch of periodic breathing followed the post-hyperventilation apnea. Once the ventilation parameters for achieving a post-hyperventilation apnea as described above were established for a particular animal, the baseline ventilatory response to hyperventilation was determined by performing two standardised hyperventilation procedures 10-15 minutes apart. The test drug (Flupirtine or Retigabine) was then administered and, approximately 1 hour later, another two hyperventilation procedures were performed 10-15 minutes apart.
Minute ventilation was calculated breath-by-breath using the breath duration determined from the respiratory flow trace and the tidal volume signal from the integrator. […]

[2] = test system: young lambs; conditions: cited from earlier work

O=c1[nH]c2ccccc2n1CCCN1CCC(n2c(=O)[nH]c3cc(Cl)ccc32)CC1 [Domperidone]
epochs of periodic breathing on hyperventilation ([1]; Domperidone 0.5 mg/kg alone, 30 minutes or more after administration): reliably elicited epochs of periodic breathing
typical duration of epochs of periodic breathing ([1]; Domperidone 0.5 mg/kg alone, before test drug): 2 to 5 min
duration of blocking effect ([2]; 0.5 mg/kg dose to a lamb, previous research (Kressin et al. 1986)): at least three hours
effect on loop gain of the respiratory control system ([2]; young lambs, Edwards et al. (2008)): increases

CCOC(=O)Nc1ccc(NCc2ccc(F)cc2)nc1N [Flupirtine]
effect on average value of loop gain across the epoch [1]: reduced
effect on epoch duration [1]: reduced
effect on number of cycles in epochs of periodic breathing following hyperventilation [1]: significantly reduced
number of cycles of ventilation and apnea in the epoch of periodic breathing [1]: 9 cycles
duration of the epoch of periodic breathing [1]: 130 s
average value of loop gain across the epoch of periodic breathing [1]: 1.16

CCOC(=O)Nc1ccc(NCc2ccc(F)cc2)cc1N [Retigabine]
effect on average value of loop gain across the epoch [1]: reduced
effect on epoch duration [1]: reduced
effect on number of cycles in epochs of periodic breathing following hyperventilation [1]: significantly reduced
number of cycles of ventilation and apnea in the epoch of periodic breathing [1]: 6 cycles
duration of the epoch of periodic breathing [1]: 115 s
average value of loop gain across the epoch of periodic breathing [1]: 1.24
